Source: patent publication US4496555A, “Compounds and compositions for inhibiting estrogen sulfotransferase transferase activity, process and novel intermediates therein” (Wayne State University, priority 1983, dated 1985)

Legend:
[1] = target: T1, Bovine Adrenal Estrogen Sulfotransferase (Bos taurus, UniProt P19217); experiment: Purified bovine adrenal estrogen sulfotransferase inhibition; assay type: biochemical; conditions: purified bovine adrenal enzyme; inhibitor concentration not given
T1 construct: from tissue; host or cells: bovine adrenal
T1 sequence (P19217 1-295): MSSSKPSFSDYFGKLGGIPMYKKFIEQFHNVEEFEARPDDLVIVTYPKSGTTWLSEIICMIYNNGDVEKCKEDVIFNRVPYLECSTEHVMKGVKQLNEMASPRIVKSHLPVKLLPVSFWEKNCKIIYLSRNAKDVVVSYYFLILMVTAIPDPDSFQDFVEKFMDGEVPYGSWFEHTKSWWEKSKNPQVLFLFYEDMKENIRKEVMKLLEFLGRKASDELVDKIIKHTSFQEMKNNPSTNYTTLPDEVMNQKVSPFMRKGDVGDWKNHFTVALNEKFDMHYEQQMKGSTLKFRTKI
Experimental: (§1) The estrogen sulfotransferase inhibiting activity of compounds within the scope of the invention are determined by inhibition of bovine adrenal or porcine uterine estrogen sulfotransferase. The desired concentration of estrogen sulfates is determined by comparisons after appropriate incubations with and without inhibitors and at various concentrations of inhibitors in the incubation. A detailed description of materials and methods for both bovine adrenal sulfotransferase inhibition and metabolism of estrogen in porcine uterus during implantation is described in U.S. Pat. No. 4,340,602 incorporated herein by reference above. Additionally, U.S. Pat. No. 4,340,602 describes materials and methods for determining estrogen sulfurylation in human endometrial curettings.
*Methods described in: Rozhin, J., et al. J. Biol. Chem. 252, 7214 (1977)

[2] = target: T2, Porcine Uterine Estrogen Sulfotansferase (Sus scrofa, UniProt A0A286ZW98); experiment: Inhibition of porcine uterine estrogen sulfotransferase (estrogen sulfates formed); assay type: biochemical; conditions: control 1.26 p mole
T2 sequence (A0A286ZW98 1-296): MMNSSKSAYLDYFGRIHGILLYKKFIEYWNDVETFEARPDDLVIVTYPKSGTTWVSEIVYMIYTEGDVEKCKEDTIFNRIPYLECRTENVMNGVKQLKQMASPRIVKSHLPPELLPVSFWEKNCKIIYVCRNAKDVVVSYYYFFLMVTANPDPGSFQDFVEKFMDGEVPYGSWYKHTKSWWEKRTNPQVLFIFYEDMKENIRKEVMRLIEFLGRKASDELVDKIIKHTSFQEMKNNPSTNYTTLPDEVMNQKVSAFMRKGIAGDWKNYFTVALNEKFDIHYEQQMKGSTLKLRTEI
Experimental: as §1

[3] = system: receptor binding and nuclear migration of physiological levels of 17β-estradiol; conditions: Rozhin et al 1977; cited from earlier work
[4] = system: estrogen sulfurylation; conditions: Rozhin et al, J. Biol Chem., 1977, 252, 7214; cited from earlier work

SMILES | % Inhibition [1] [%] | Estrogen Sulfates ([2]; 10-fold inhibitor) [p mole] | Estrogen Sulfates ([2]; 10^2-fold inhibitor) [p mole] | Estrogen Sulfates ([2]; 10^3 fold inhibitor) [p mole] | interference with receptor binding and nuclear migration of 17β-estradiol [3] | estrogen sulfurylation [4]
C[C@]12CC[C@@H]3c4cccc(F)c4CC[C@H]3[C@@H]1CC[C@@H]2O [4-F-1,3,5(10)estratriene 17β-ol, 4-Fluoroestra-1,3,5-(10)-trien-17β-ol] | 81 | 1.07 | 1.08 | 0.67 |  | 
COc1ccc2c(c1[N+](=O)[O-])CC[C@@H]1[C@@H]2CC[C@]2(C)C(=O)CC[C@@H]12 [4-nitroestrone 3-0-methylether] |  |  |  |  | without interfering with the receptor binding and nuclear migration | blocks estrogen sulfurylation
